Laboratory results: patent US5077312A, “Biologically active lipids binding membrane receptors” (priority 1990, dated 1991)
“And” between values parts separate entries of the source, which are not always exact repeats. Identical values can stand only once.

Experiments:
[1] = system: PDBu receptor (phorboid receptor) of murine brain membranous fraction (BMF); test: PDBu binding inhibiting activity (PBIA): inhibition of 3H-PDBu binding to murine brain membranous fraction; set-up: species or system murine (mouse, NFS strain)
Description: Pooled murine brains from approximately 2 month old mice, NFS strain, were minced with scissors, suspended in 1 mM triethanolamine-HCl, pH 7.4, and disrupted with a polytron P-10 (Brinkman). This and all subsequent steps were performed at 4° C. The homogenate was centrifuged for 10 minutes at 1700 xg; the supernate was removed and centrifuged for 60 minutes at 105,000 xg. The resulting pellet was suspended in one-fourth of the initial volume of PBS. The suspension was aliquoted into a small volume and stored at -70° C.
The binding of ^3 H-PDBu to BMF or soluble receptors was performed in duplicate in 12×75 mm disposable glass tubes (Kimax) both in the absence and presence of 20 μg/ml unlabeled PDBu; the binding mixture contained 5 ng of ^3 H-PDBu (4×10^4 cpm), 0.2% final concentration of DMSO and BMF (50 μg protein) or soluble receptors in a total volume of 0.25 ml binding buffer (BB) consisting of Dulbecco's minimum essential medium (DMEM) containing bovine serum albumin (BSA 1 mg/ml) and N,N,-bis-(2-hydroxyethyl)-2-amino-ethane sulfonic acid (BES, 5 mM), adjusted to pH 6.8. After incubation for 30 minutes at 23° C. the tubes were chilled, 0.5 ml cold 4% calf serum (Colorado Serum Co., Denver, Colo.) and 0.7 ml cold polyethylene glycol (PEG 6,000) in 1 mM Tris-HCl, pH 7.4 was added to each tube, the contents vortexed, the tubes allowed to stand for 15 min at 4° C., and centrifuged for 10 in at 1500 xg at 4° C. The supernatant solution was carefully aspirated off, the pellet suspended in 2.5 ml of cold 10% PEG in 0.1M Tris-HCl, pH 7.4, containing 0.5% SDS and 1 mM EDTA). The mixture was transferred to counting vials and 10 ml of Aquassure (NEN) was added to each vial. The vials were vigorously shaken and radioactivity determined using a Beckman beta counter. The radioactivity bound in the presence of 20 μg/ml (50-200 cpm) unlabeled PDBu was considered to be nonspecific and all data were corrected accordingly.
The loss of the ability of ^3 H-PDBu to bind to receptors in the presence of ligand was used as the measure of inhibiting activity. PDBu binding inhibition assays were performed as described above, except the test materials were added to the reaction mixture and binding measured as described above.
The PBIA of ligand was equated with that of PDBu by the use of the term ng equivalent calculated from a plot of [^3 H]PDBu bound versus the log molar concentration for several biologically active phorbol esters (2). The curve corresponding to PDBu inhibition of PDBu binding was used by reading the molar concentration corresponding to the percent of control binding of [^3 H]PDBu in the presence of ligand to obtain the units ng PDBu equivalent of ligand.

arachidonic acid cascade = test: Stimulation of arachidonic acid cascade: release of radioactivity from cells labeled with radioactive arachidonic acid; type: cell-based
Text: (§1) The release of radioactivity into the medium from cells previously labeled with radioactive arachidonic acid was used as a measure of activation of eicosanoids pathway. […] PBIL from all sources inhibited PDBu-receptor interaction.

[2] = system: arachidonic acid cascade in mink lung cells; test: Activation of arachidonic acid cascade in mink lung cells; type: cell-based
Text: as §1

[3] = system: purified phorboid receptor (serine-protein kinase); test: Protein kinase activity of purified phorboid receptor; type: biochemical, murine
Description: In the final volume of 0.25 ml, the reaction mixture in duplicate contained 5 μmol Tris-HCl (pH 7.4), 1 μmol MgCl2, 50 μg histone, 0.12 nmol [-^32 P] ATP (8×10^6 cpm at arrival) and an appropriate amount of purified receptor protein. The reaction was carried out for 15 min at 23° C. The phosphorylated proteins were precipitated with 5% cold TCA, using BSA (250 μg) as carrier. The mixture in the tubes was allowed to settle at 4° C. for 15-30 min. Precipitates were collected on cellulose nitrate filters (0.45 μm) and washed with 75 ml of cold 5% TCA. Filters were dried and counted in Betafluor scintillation fluid.
Purified phorboid receptor from murine brain was purified to homogeneity and shown that the purified receptor is a serine-protein kinase (Shoyab, Cell Proliferation (CSH Laboratory) (1984) 11:253-262). The effect of PBIL on this protein kinase was tested. […] At higher concentration the kinase activity was inhibited (Table 4).
The assay conditions were the same as described in the text except the indicated amount of PBIL and 25 ng of purified receptor protein (Shoyab, Cell Proliferation (CSH Laboratory) (1984) 11:253-262) were used.

[4] = concentration 0.8 (unit not given)
[5] = concentration 0.4 (unit not given)
[6] = concentration 0.2 (unit not given)

| Compound | Inhibition of binding of PDBu to its receptor [1, 4] | Inhibition of binding of PDBu to its receptor [1, 5] [%] | further results |
| --- | --- | --- | --- |
| CCCCCCCC/C=C\CCCCCCCC(=O)OCC(CO)OC(=O)CCCCCCC/C=C\CCCCCCCC (stereo not drawn) [1,2-Diolein, reference compound] | 20% | – | – |
| CCCCCCCC/C=C\CCCCCCCC(=O)OCC(O)CO (stereo not drawn) [1-Monoolein, 1-monoolein] | 63% | 21 | – |
| CCCCC/C=C\C/C=C\C/C=C\C/C=C\CCCC(=O)OCC(O)CO (stereo not drawn) [1-Monoarachidonin, 1-monoarachidonin] | 95% | 91 | Inhibition of / competition for PDBu binding to receptor (in words) [1]: compete with phorbol dibutyrate for its receptor; Inhibition of binding of PDBu to its receptor [1, 6]: 41%; Stimulation of arachidonic acid cascade (release of radioactivity into the medium) (arachidonic acid cascade): stimulate the arachidonic acid cascade |
| CCCCCCCC/C=C\CCCCCCCC(=O)OCC(O)COC(=O)CCCCCCC/C=C\CCCCCCCC [1,3-Diolein, reference compound] | 11% | – | – |
| CCCCCCCCCCCCCCCC(=O)OCC(O)COC(=O)CCCCCCCCCCCCCCC [1,3-Dipalmitin, reference compound] | -12% | – | – |
| CCCCC/C=C\C/C=C\CCCCCCCC(=O)OC[C@@H](O)CO [1-Monolinolein, 1-monolinolein] | 94% | 82 | Inhibition of / competition for PDBu binding to receptor (in words) [1]: compete with phorbol dibutyrate for its receptor; Inhibition of binding of PDBu to its receptor [1, 6]: 39%; Stimulation of arachidonic acid cascade (release of radioactivity into the medium) (arachidonic acid cascade): stimulate the arachidonic acid cascade; Activation of arachidonic acid cascade [2]: activated the arachidonic acid cascade in mink lung cells in a dose- and time-dependent manner |
| CCCCCCCCCCCCCC(=O)O[C@@H]1[C@@H](C)[C@@]2(O)[C@@H](C=C(CO)C[C@]3(O)C(=O)C(C)=C[C@@H]23)[C@@H]2C(C)(C)[C@]12OC(C)=O [TPA, 12-0-tetradecanoylphorbol-13-acetate] | – | – | Stimulation of protein kinase activity (in words) [3]: stimulated the kinase activity |
| CCCCC/C=C\C/C=C\CCCCCCCC(=O)OCC(O)COC(=O)CCCCCCC/C=C\C/C=C\CCCCC [1,3-Dilinolein, reference compound] | 15% | – | – |
| CCCCCCCCCCCCCC(=O)OCC(O)COC(=O)CCCCCCCCCCCCC [1,3-Dimyristin, reference compound] | – | 1 | – |
| CCCCCCCCCCCCCC(=O)OCC(O)CO (stereo not drawn) [1-Monomyristin, reference compound] | – | 0 | – |
| CC/C=C\C/C=C\C/C=C\CCCCCCCC(=O)OCC(O)CO (stereo not drawn) [1-Monolinolenin, 1-monolinolenin] | 94% | 74 | Inhibition of binding of PDBu to its receptor [1, 6]: 27% |

Second part, led by results:

| Inhibition of binding of PDBu to its receptor [1, 4] | Inhibition of binding of PDBu to its receptor [1, 5] [%] | Compound | further results |
| --- | --- | --- | --- |
| 82% | 36 | CCCCCC/C=C\CCCCCCCC(=O)OCC(O)CO (stereo not drawn) [1-Monopalmitolein, 1-monopalmitolein] | Inhibition of / competition for PDBu binding to receptor (in words) [1]: compete with phorbol dibutyrate for its receptor; Stimulation of arachidonic acid cascade (release of radioactivity into the medium) (arachidonic acid cascade): stimulate the arachidonic acid cascade |
| – | 11 | CCCCCCCCCCCC(=O)OCC(COC(=O)CCCCCCCCCCC)OC(=O)CCCCCCCCCCC [Trilaurin, reference compound] | – |
| -8% | -11 | CCCCCCCCCCCCCCCC(=O)OCC(COC(=O)CCCCCCCCCCCCCCC)OC(=O)CCCCCCCCCCCCCCC [Tripalmitin, reference compound] | – |
| -1% | – | CCCCC/C=C\C/C=C\CCCCCCCC(=O)OCC(COC(=O)CCCCCCC/C=C\C/C=C\CCCCC)OC(=O)CCCCCCC/C=C\C/C=C\CCCCC [Trilinolein, reference compound] | – |
| – | 15 | CCCCCCCCCCCCCC(=O)OCC(COC(=O)CCCCCCCCCCCCC)OC(=O)CCCCCCCCCCCCC [Trimystrin, reference compound] | – |
| – | 0 | OCC(O)CO [Glycerol, reference compound] | – |
| -6% and -15% | – | CCCCCCCCCCCCCCCC(=O)OCC(O)CO (stereo not drawn) [1-Monopalmitin, 1-monopalmitin] | – |
| 15% | 10 | CCCCC/C=C\C/C=C\CCCCCCCC(=O)O [Linoleic acid-Na, reference compound] | – |
